Assay results published in patent US10987389B2, “Anti-tumor traditional Chinese medicine microbial fermentation preparation and a preparation method and application thereof” (priority 2014, dated 2021).
Several values for one entry are separate records, joined by “and”; a condition that tells them apart may be missing. Equal entries are not always repeated.

Key:
Type in all cases: in vivo
[1] = tested on: mouse transplantable Heps solid tumor; test: Effects of oral administration of the compound powder on mouse Heps solid tumor; conditions: for Inhibition rate / Tumor weight (g) (X ± SD): mouse Heps solid tumor; for Weight (g) Beginning: body weight at beginning; for Weight (g) Beginning / Weight (g) End: Heps; for Weight (g) End: body weight at end
Experimental: (§1) A suspension of 10% was prepared from the traditional Chinese medicine compound powder provided by the present invention and then stored in a refrigerator. The suspension would be shaken up before use. Tumor strain: Heps, S180 and ESC were all commercially available products. Animal: Kunming mice provided by the animal laboratories of Shenyang Pharmaceutical University and China Pharmaceutical University. Method: referring to the following literatures: Literature 1: chief editor Xu Shuyun. Methodology of Pharmacological Experiment, Beijing: People's Medical Publishing House 1982, 1115-1125. Literature 2: China Academic Conference on Tumor Pharmacology and Chemotherapy: In-vivo Efficacy Test Procedures of Anticancer Drugs, internal data. 1989. 1. Effects of the Traditional Chinese Medicine Compound Powder on Heps Solid Tumor […]

[2] = tested on: mouse transplantable S180 solid tumor; test: Effects of oral administration of the compound powder on mouse S180 solid tumor; conditions: Dosage 0.2 ml/10 g × 9
Experimental: as §1, with “1989. 2.” for “1989. 1.”, “on S180” for “on Heps”

[3] = tested on: mouse Ehrlich Ascites Cancer (EAC) solid tumor; test: Effects of oral administration of the compound powder on mouse Ehrlich Ascites Cancer (EAC) solid tumor; conditions: Dosage 0.2 ml/10 g × 9
Experimental: as §1, with “1989. 3.” for “1989. 1.”, “on ESC” for “on Heps”

## O=c1[nH]cc(F)c(=O)[nH]1 [0.15% 5-Fu, 5-Fu]
[1]; Dosage 0.1 ml/10 g × 8
  Inhibition rate: 65.75% and 56.62%
  Tumor weight (g) (X ± SD): 1.12 ± 0.85 g and 0.59 ± 0.27 g
  Weight (g) Beginning: 21.30 g and 18.95 g
  Weight (g) End: 24.80 g and 20.22 g
[1]; Dosage 0.1 ml/10 g × 9
  Inhibition rate: 58.55%
  Tumor weight (g) (X ± SD): 1.05 ± 0.54 g
  Weight (g) Beginning: 21.00 g
  Weight (g) End: 25.86 g
[2]; mouse S180 solid tumor
  Inhibition rate: 61.80% and 60.53% and 42.62%
  Tumor weight (g) (X ± SD): 1.36 ± 0.44 g and 1.33 ± 0.31 g and 1.87 ± 1.03 g
[2]; body weight at beginning, S180
  Weight (g) Beginning: 21.80 g and 21.30 g and 20.78 g
[2]; body weight at end, S180
  Weight (g) End: 24.70 g and 23.60 g and 20.00 g
[3]; mouse EAC solid tumor
  Inhibition rate: 64.85% and 66.85% and 65.36%
  Tumor weight (g) (X ± SD): 1.23 ± 0.43 g and 1.31 ± 0.65 g and 1.33 ± 0.63 g
[3]; body weight at beginning, EAC
  Weight (g) Beginning: 20.90 g and 21.45 g and 20.85 g
[3]; body weight at end, EAC
  Weight (g) End: 26.80 g and 22.20 g and 26.90 g
